We go through 1 substance from paper PMC11794677, “Self‐Assembly of a Conjugate of Lipoic Acid With a Collagen‐Stimulating Pentapeptide Showing Cytocompatibility and Wound Healing Properties, and Chemical and Photolytic Disassembly” (Journal of Peptide Science, 2025).

A short description of series [1]: UV exposure / photodegradation, UV-vis absorbance at 333 nm. In kind it is physicochemical. The note with it: UV lamp 365 nm for 1 h, 0.1 wt% solution, read 24 h after irradiation. Here is the method:
To investigate the effect of UV exposure on lipoyl‐KTTKS the peptide powder was irradiated using a 4W UVGL‐25 lamp (Analytik Jena, Germany) at a wavelength of 365 nm for 1 h. The absorbance was tracked at 333 nm before, just after exposure and 24 h after exposure using a nanodrop spectrometer (Thermo‐Fisher Scientific). The full spectra were also collected using a Varian Cary Bio 300 UV‐vis (Cary).
Lipoic acid is susceptible to photolysis upon exposure to UV light. Photodegradation of lipoyl‐KTTKS was studied via UV‐vis, FTIR and CD spectroscopy and degradation products were analysed by electrospray ionisation‐mass spectroscopy (ESI‐MS). Photolysis was induced by exposure to UV for 1 h using a UV lamp with 365‐nm radiation. Lipoic acid presents a characteristic weak band at 333 nm that is related to the hindered dithiolane ring, that can be broken by UV irradiation. The absorbance of lipoyl‐KTTKS (0.1 wt% solution) before irradiation, just after and 24 h after irradiation to evaluate the recovery of the dithiolane ring is shown in Figure 5. […] The UV exposure disrupts the dithiolane ring, as reflected also in the FTIR spectrum (Figure S2), with the suppression of bands ν(S‐S) at 519 and 438 cm^−1 and ν(C‐S) at 721 cm^−1 [48, 49].

The test system of the next series is HDFa cells. As to the kind of experiment: Scratch assay of in vitro wound healing. In kind it is cell-based, Human. Conditions: 0.0062 wt% in DMEM without serum. Here is the method: For the scratch assay, 5 × 10^4 cells into were seeded into 24‐well plates, and cells were allowed to reach confluence. After reaching 90% confluence, a scratch was made in the middle of the well using a 200‐μL pipette tip and cells were incubated at 37°C in an atmosphere 5% CO2. The media used was DMEM without serum for the controls or DMEM without serum + lipoyl‐KTTKS at different concentrations. Pictures were taken periodically using a standard inverted optical microscope with phase contrast filters to monitor cell migration and wound closure.
As a simple in vitro ‘wound healing’ model, scratch assays were performed by creating a scratch in a layer of cells. Images of the confluent cell layer are presented in SI Figure S5. The scratch assay is a simple and affordable procedure consisting of simulating the closure of a skin wound by scratching a monolayer of fibroblasts seeded at high confluence and monitoring how long it takes for the cells to migrate and recover the ‘wound’ [51, 52, 53]. As evident from the images in Figure S5, the recovery of cells incubated with 0.0062 wt% lipoyl‐KTTKS was enhanced, with complete closure of the scratch after 48 h.

For “lipoyl‐KTTKS [peptide amphiphile comprising a conjugate of lipoic acid to pentapeptide KTTKS]”, the “Recovery of absorbance at 333 nm (dithiolane ring) after UV exposure” value in series [1] is reported as “incomplete recovery”. The “Time to first signs of recovery of the scratch” value in the series on HDFa cells is 12 h. Besides, the “Time to complete closure of the scratch” value in the series with HDFa cells (control closed only after 72 h) stood at 48 h.
